Assay: logP determination through HPLC (EEC directive 79/831 Annex V. A8, gradient method, acetonitrile/0.1% aqueous phosphoric acid)
Format: physicochemical
Conditions: for chromatographic logP: HPLC
[1] = Table 1, compounds of formula (I), HPLC gradient method, acetonitrile/0.1% aqueous phosphoric acid
[2] = Table 2, precursors of formula (II)
[3] = Table 3, precursors of formula (IV)

Structure (SMILES)	logP [1]	also measured
CC1CN(c2c(-c3ccsc3)c(Cl)nc3nc(C4CC4)nn23)CC(C)O1 (stereo not drawn) [Example 67]	3.26	
CC(C)CC(C)Nc1c(-c2cc(Cl)sc2Cl)c(Cl)nc2nc(C3CC3)nn12 (stereo not drawn) [Example 68]	5.42	
CCC(C)Nc1c(-c2cc(Cl)sc2Cl)c(Cl)nc2nc(C3CC3)nn12 (stereo not drawn) [Example 69]	4.56	
Clc1cc(-c2c(Cl)nc3nc(C4CC4)nn3c2NC2CCCC2)c(Cl)s1 [Example 70]	4.82	
CC(C)Nc1c(-c2ccsc2)c(Cl)nc2nc(C3CC3)nn12 [Example 72]	3.07	
Clc1nc2nc(C3CC3)nn2c(N2CCOCC2)c1-c1ccsc1 [Example 73]	2.51	
Clc1nc2nc(C3CC3)nn2c(NC2CCCC2)c1-c1ccsc1 [Example 74]	3.63	
C=C(C)CN(C)c1c(-c2ccsc2)c(Cl)nc2nc(C3CC3)nn12 [Example 75]	3.81	
COCCNc1c(-c2cc(Cl)sc2Cl)c(Cl)nc2nc(C3CC3)nn12 [Example 76]	3.55	
CC(C)(C)CNc1c(-c2ccsc2)c(Cl)nc2nc(C3CC3)nn12 [Example 77]	3.85	
CCC(C)Nc1c(-c2ccsc2)c(Cl)nc2nc(C3CC3)nn12 (stereo not drawn) [Example 78]	3.41	
CCCN(CC1CC1)c1c(-c2cc(Cl)sc2Cl)c(Cl)nc2nc(C3CC3)nn12 [Example 79]	5.71	
CC(C)CN(C)c1c(-c2cc(Cl)sc2Cl)c(Cl)nc2nc(C3CC3)nn12 [Example 81]	5.25	
Clc1cc(-c2c(Cl)nc3nc(C4CC4)nn3c2N2CCCC2)c(Cl)s1 [Example 82]	4.37	
Clc1cc(-c2c(Cl)nc3nc(C4CC4)nn3c2N2CCCCCC2)c(Cl)s1 [Example 85]	5.14	
Clc1cc(-c2c(Cl)nc3nc(C4CC4)nn3c2N2CCOCC2)c(Cl)s1 [Example 89]	3.68	
CC(Nc1c(-c2scnc2Cl)c(Cl)nc2nc(C3CC3)nn12)C(F)(F)F (stereo not drawn) [Example 91]	2.94	
CC(C)C(C)Nc1c(-c2scnc2Cl)c(Cl)nc2nc(C3CC3)nn12 (stereo not drawn) [Example 92]	3.23	
CC1CCN(c2c(-c3ncncc3Cl)c(Cl)nc3nc(C4CC4)nn23)CC1 [Example 94]	3.30	

Structure (SMILES)	logP [1]	also measured
CC1CCCCN1c1c(-c2ccsc2)c(Cl)nc2nc(C3CC3)nn12 (stereo not drawn) [Example 95]	4.07	
CC(C)c1nc2nc(Cl)c(-c3ncncc3F)c(NC(C)C(C)(C)C)n2n1 (stereo not drawn) [Example 100]	3.47	
CC(C)c1nc2nc(Cl)c(-c3ncncc3F)c(NC(C)C(C)C)n2n1 (stereo not drawn) [Example 101]	3.02	
CC(C)c1nc2nc(Cl)c(-c3ncncc3F)c(NC(C)C(F)(F)F)n2n1 (stereo not drawn) [Example 102]	2.78	
CC(Nc1c(-c2ncncc2F)c(Cl)nc2nc(C3CC3)nn12)C(C)(C)C (stereo not drawn) [Example 103]	3.18	
CC(C)C(C)Nc1c(-c2ncncc2F)c(Cl)nc2nc(C3CC3)nn12 (stereo not drawn) [Example 104]	2.79	
CC(Nc1c(-c2ncncc2F)c(Cl)nc2nc(C3CC3)nn12)C(F)(F)F (stereo not drawn) [Example 105]	2.57	
CC1CCN(c2c(-c3ncncc3F)c(Cl)nc3nc(C4CC4)nn23)CC1 [Example 106]	3.02	
Cc1nc2nc(Cl)c(-c3ncncc3F)c(NC(C)C(C)(C)C)n2n1 (stereo not drawn) [Example 107]	2.54	
FC(F)(F)c1cccnc1-c1c(Cl)nc2nc(C3CC3)nn2c1Cl [Example 114]		chromatographic logP: 2.73
Cc1nc2nc(Cl)c(-c3ncncc3Cl)c(Cl)n2n1 [Example 115, 5,7-dichloro-6-(5-chloro-4-pyrimidinyl)-2-methyl[1,2,4]-triazolo[1,5-a]pyrimidine]		chromatographic logP: 1.58
Clc1cncnc1-c1c(Cl)nc2nc(C3CC3)nn2c1Cl [Example 116]		logP [2]: 2.23
Cc1nc2nc(Cl)c(-c3cncnc3C(F)(F)F)c(Cl)n2n1 [Example 117]		logP [2]: 2.10
Clc1nc2nc(C3CC3)nn2c(Cl)c1-c1ccccn1 [Example 118]		logP [2]: 1.88
O=[N+]([O-])c1cccc(-c2c(Cl)nc3nc(C4CC4)nn3c2Cl)n1 [Example 119]		logP [2]: 2.91
Cc1nc2nc(Cl)c(-c3ncccc3[N+](=O)[O-])c(Cl)n2n1 [Example 120]		logP [2]: 1.68
Oc1nc2nc(C3CC3)nn2c(O)c1-c1ncccc1C(F)(F)F [Example 124, 6-(3-trifluoromethyl-pyridin-2-yl)-2-cyclopropyl[1,2,4]triazolo[1,5-a]-pyrimidin-5,7-diol]		chromatographic logP: 0.47
Cc1nc2nc(O)c(-c3ncccc3C(F)(F)F)c(O)n2n1 [Example 126]		logP [3]: −0.03
Oc1nc2nc(C3CC3)nn2c(O)c1-c1ncncc1Cl [Example 127]		logP [3]: −0.07

More lines, main results first:

logP [1]	Structure (SMILES)	also measured
2.21	Cc1nc2nc(Cl)c(-c3ncncc3F)c(NC(C)C(C)C)n2n1 (stereo not drawn) [Example 108]	
2.03	Cc1nc2nc(Cl)c(-c3ncncc3F)c(NC(C)C(F)(F)F)n2n1 (stereo not drawn) [Example 109]	
3.95	CC(C)c1nc2nc(Cl)c(-c3ncc(C(F)(F)F)cc3Cl)c(NC(C)C(F)(F)F)n2n1 (stereo not drawn) [Example 111]	
4.32	CC(C)c1nc2nc(Cl)c(-c3ncc(C(F)(F)F)cc3Cl)c(NC(C)C(C)C)n2n1 (stereo not drawn) [Example 112]	

Reference: patent publication US20070179295A1, “Triazolopyrimidines” (priority 2003, published 2007)
